Our source for the IC50 values is US10442763B2, “EBNA1 inhibitors and methods using same” (priority 2015, dated 2019).

Molecules are shown by their SMILES.

T1 sequence (P03211 459-607): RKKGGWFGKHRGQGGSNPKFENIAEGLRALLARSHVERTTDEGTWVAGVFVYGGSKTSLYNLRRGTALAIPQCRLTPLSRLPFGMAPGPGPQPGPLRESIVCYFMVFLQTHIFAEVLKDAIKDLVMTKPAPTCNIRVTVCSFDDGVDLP

This test addresses T1, His-EBNA1 (DNA binding domain of EBNA1, amino acids 459-607) (Epstein-Barr virus, UniProt P03211).
T1 construct: made in house; host or cells: E. coli
Briefly: Inhibition of 5'-biotin-oPL4624 binding to His-EBNA1 using Alpha Screen technology. An outline of the steps: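 AlphaScreen with 15 nM E. coli-expressed His-EBNA1 (aa 459-607), 0.2 nM biotinylated oPL4624 DNA and 5 μg/mL donor and acceptor beads in 25 mM Tris pH 7.2, 160 mM NaCl, 1 mM MgCl2; compound 3.2 nM–100 μM final. Read after 2 h at RT; inhibition normalised to no-EBNA1 wells, one-site dose-response fit.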
For orientation: Bead proximity is the source of the signal in Alpha formats.
Usually IC50 stands for the point on the concentration scale where inhibition reaches its midpoint. `CC(C)S(=O)(=O)N1CCN(Cc2ccc(C#Cc3cccc(C(=O)O)c3-c3ccc4cc[nH]c4c3)cc2)CC1` [Entry 191] came in with an IC50 of 1 to 10 µM. Take `CS(=O)(=O)N1CCC2(CC1)CN(Cc1ccc(C#Cc3cccc(C(=O)O)c3-c3ccc4cc[nH]c4c3)cc1)C2` [Entry 192]: the IC50 lay in the range of 10 to 100 µM.

In turn, `O=C(O)c1cccc(C#Cc2ccc(OC3CCOCC3)cc2)c1-c1ccc2[nH]ccc2c1` [Entry 193] yielded an IC50 of 1 to 10 µM. For `CN(C)S(=O)(=O)NC(=O)c1cccc(C#Cc2ccc(COC3CCOCC3)cc2)c1-c1ccc2cc[nH]c2c1` [Entry 194] the value was 1 to 10 µM.

`CS(=O)(=O)NC(=O)c1cccc(C#Cc2ccc(COC3CCOCC3)cc2)c1-c1ccc2cc[nH]c2c1` [Entry 195] gave an IC50 of 10 to 100 µM. On to `C(#Cc1cccc(-c2nnn[nH]2)c1-c1ccc2cc[nH]c2c1)c1ccc(COC2CCOCC2)cc1` [Entry 196], for which the IC50 is 1 to 10 µM. On to `O=C(NCc1ccc(C#Cc2cccc(C(=O)O)c2-c2ccc3cc[nH]c3c2)cc1)c1ccccc1` [Entry 197], for which the IC50 lay in the range of 1 to 10 µM. `O=C1CCC(C(=O)NCc2ccc(C#Cc3cccc(C(=O)O)c3-c3ccc4cc[nH]c4c3)cc2)CC1` [Entry 198] displayed an IC50 of less than 1 µM. As for `O=C1CCC(NC(=O)c2ccc(C#Cc3cccc(C(=O)O)c3-c3ccc4cc[nH]c4c3)cc2)CC1` [Entry 199], the figure is less than 1 µM; as for `Nc1nc2c(s1)C[C@@H](NC(=O)c1ccc(C#Cc3cccc(C(=O)O)c3-c3ccc4cc[nH]c4c3)cc1)CC2` [Entry 200], 1 to 10 µM; as for `Nc1nc2c(s1)C[C@H](NC(=O)c1ccc(C#Cc3cccc(C(=O)O)c3-c3ccc4cc[nH]c4c3)cc1)CC2` [Entry 201], 1 to 10 µM. Compound `CN1CCN(C(=O)c2ccc(C#Cc3cccc(C(=O)O)c3-c3ccc4cc[nH]c4c3)cc2)CC1` [Entry 202] gave an IC50 of 10 to 100 µM. In turn, `COC1CCN(C(=O)c2ccc(C#Cc3cccc(C(=O)O)c3-c3ccc4cc[nH]c4c3)cc2)CC1` [Entry 203] yielded an IC50 of 1 to 10 µM. The compound `CS(=O)(=O)N1CCN(Cc2ccc(C#Cc3cccc(C(=O)O)c3-c3ccc4cn[nH]c4c3)cc2)CC1` [Entry 204] showed an IC50 of 10 to 100 µM.

In the case of `NS(=O)(=O)N1CCN(Cc2ccc(C#Cc3cccc(C(=O)O)c3-c3ccc4cc[nH]c4c3)cc2)CC1` [Entry 205], the IC50 lay in the range of 1 to 10 µM.
